From publication PMC7093421, “Perfluorooctane sulfonate (PFOS) and perfluorooctanoate (PFOA) acutely affect human α1β2γ2L GABAA receptor and spontaneous neuronal network function in vitro” (Scientific Reports, 2020)

Target: T1, human α1β2γ2L GABAA receptor (Homo sapiens, UniProt P14867+P18507+P47870)
T1 construct: gene GABRA1; α1β2γ2L receptor expressed in Xenopus laevis oocytes; with GABRB2 (β2) and GABRG2 (γ2L) subunits
Test: two-electrode voltage clamp in Xenopus oocytes, inhibition of GABA-evoked current ([…] GABA)
Type: cell-based

T1 sequence (P14867 28-456): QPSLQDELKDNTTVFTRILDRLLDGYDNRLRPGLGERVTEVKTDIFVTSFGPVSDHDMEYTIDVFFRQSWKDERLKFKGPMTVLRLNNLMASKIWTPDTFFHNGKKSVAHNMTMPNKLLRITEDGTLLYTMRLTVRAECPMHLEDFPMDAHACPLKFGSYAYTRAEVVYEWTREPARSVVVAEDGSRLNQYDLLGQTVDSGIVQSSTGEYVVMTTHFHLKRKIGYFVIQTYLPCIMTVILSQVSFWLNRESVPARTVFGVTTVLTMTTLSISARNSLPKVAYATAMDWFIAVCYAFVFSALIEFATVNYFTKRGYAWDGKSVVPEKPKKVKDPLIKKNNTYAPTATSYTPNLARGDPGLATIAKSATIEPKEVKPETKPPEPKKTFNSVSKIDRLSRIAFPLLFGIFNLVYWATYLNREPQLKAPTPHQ
T1 sequence (P47870 26-512): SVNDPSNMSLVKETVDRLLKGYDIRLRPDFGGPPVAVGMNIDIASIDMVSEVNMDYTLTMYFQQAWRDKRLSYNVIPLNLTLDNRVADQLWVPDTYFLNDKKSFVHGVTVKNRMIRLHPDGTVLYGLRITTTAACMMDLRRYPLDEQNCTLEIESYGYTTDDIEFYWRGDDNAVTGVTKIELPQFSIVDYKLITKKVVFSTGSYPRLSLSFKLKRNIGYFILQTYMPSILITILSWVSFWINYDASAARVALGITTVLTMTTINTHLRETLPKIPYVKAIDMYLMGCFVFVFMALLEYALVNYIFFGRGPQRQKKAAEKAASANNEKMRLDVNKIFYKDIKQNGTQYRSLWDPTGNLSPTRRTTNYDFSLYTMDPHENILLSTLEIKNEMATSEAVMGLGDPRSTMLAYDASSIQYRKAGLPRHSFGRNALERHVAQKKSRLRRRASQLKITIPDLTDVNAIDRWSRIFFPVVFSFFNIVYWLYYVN
T1 sequence (P18507 40-475): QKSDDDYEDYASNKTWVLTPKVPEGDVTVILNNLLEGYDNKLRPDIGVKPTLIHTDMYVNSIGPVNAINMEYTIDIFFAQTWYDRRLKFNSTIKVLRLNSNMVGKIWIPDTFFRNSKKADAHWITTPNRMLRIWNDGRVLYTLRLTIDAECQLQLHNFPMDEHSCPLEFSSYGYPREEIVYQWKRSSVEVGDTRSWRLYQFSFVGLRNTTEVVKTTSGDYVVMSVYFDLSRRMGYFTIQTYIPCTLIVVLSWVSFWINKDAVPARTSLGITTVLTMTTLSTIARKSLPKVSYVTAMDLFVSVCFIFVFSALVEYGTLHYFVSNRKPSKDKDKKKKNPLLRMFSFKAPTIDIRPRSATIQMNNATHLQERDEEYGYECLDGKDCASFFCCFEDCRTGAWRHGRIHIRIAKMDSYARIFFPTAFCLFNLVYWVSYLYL

Structure (SMILES) | IC50 [µM]
O=C(O)C(F)(F)C(F)(F)C(F)(F)C(F)(F)C(F)(F)C(F)(F)C(F)(F)F [PFOA] | 6.7
O=S(=O)(O)C(F)(F)C(F)(F)C(F)(F)C(F)(F)C(F)(F)C(F)(F)C(F)(F)C(F)(F)F [PFOS] | 0.18
